Test results from ChEMBL document CHEMBL3632469, “Discovery of dihydroquinazolinone derivatives as potent, selective, and CNS-penetrant M(1) and M(4) muscarinic acetylcholine receptors agonists” (Bioorg Med Chem Lett, 2015).

Experiments:
Format in all cases: functional, cell-based
[1] = molecular target: T1, Muscarinic acetylcholine receptor M1 (Homo sapiens) (UniProt P11229); test: Agonist activity at human muscarinic M1 acetylcholine receptor expressed in CHO cells assessed as calcium mobilization at 0.3 uM by FLIPR assay
T1 sequence (whole entry): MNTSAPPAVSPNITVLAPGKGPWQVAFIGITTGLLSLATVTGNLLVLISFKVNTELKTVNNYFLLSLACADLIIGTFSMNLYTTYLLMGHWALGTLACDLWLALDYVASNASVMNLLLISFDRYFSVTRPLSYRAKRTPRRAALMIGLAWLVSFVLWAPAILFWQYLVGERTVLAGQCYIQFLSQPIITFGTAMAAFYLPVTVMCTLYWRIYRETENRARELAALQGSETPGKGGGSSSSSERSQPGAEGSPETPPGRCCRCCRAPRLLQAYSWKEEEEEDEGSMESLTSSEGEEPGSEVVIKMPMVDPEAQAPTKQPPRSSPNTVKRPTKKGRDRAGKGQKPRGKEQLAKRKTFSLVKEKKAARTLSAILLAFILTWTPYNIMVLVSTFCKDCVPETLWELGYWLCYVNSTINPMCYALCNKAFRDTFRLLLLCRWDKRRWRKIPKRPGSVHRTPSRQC

[2] = molecular target: T2, Muscarinic acetylcholine receptor M4 (Homo sapiens) (UniProt P08173); test: Partial agonist activity at human muscarinic M4 acetylcholine receptor expressed in CHO cells co-expressing Galpha16 assessed as calcium mobilization at 0.3 uM by FLIPR assay
T2 sequence (whole entry): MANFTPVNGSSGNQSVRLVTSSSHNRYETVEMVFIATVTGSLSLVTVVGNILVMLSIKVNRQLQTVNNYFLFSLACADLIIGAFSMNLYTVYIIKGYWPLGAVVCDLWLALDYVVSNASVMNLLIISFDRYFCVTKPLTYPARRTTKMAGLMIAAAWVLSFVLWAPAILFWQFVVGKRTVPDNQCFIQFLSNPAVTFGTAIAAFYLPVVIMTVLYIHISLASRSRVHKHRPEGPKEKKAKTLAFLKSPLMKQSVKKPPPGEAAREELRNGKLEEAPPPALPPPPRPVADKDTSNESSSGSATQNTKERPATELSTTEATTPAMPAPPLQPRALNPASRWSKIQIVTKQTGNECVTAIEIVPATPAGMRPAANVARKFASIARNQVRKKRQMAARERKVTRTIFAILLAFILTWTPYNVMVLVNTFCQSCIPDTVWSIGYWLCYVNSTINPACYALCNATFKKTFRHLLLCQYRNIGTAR

[3] = molecular target: T3, Muscarinic acetylcholine receptor M5 (Homo sapiens) (UniProt P08912); test: Agonist activity at human muscarinic M5 acetylcholine receptor expressed in CHO cells assessed as calcium mobilization at 10 uM by FLIPR assay
T3 sequence (whole entry): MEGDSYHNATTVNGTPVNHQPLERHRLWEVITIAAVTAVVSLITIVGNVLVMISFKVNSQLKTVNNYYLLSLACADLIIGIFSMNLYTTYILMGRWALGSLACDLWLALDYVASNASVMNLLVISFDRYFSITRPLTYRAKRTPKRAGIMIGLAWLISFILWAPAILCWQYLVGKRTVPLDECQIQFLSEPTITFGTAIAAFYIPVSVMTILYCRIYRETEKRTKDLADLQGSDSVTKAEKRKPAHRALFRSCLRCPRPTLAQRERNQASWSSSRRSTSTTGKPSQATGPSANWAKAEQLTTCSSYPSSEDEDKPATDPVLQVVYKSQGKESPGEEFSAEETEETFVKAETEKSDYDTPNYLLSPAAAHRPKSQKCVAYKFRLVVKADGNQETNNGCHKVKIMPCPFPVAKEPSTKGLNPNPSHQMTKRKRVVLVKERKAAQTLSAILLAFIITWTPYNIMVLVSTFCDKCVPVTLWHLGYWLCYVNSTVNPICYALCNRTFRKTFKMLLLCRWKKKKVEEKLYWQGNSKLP

[4] = molecular target: T4, Muscarinic acetylcholine receptor M2 (Homo sapiens) (UniProt P08172); test: Agonist activity at human muscarinic M2 acetylcholine receptor expressed in CHO cells co-expressing Galpha16 assessed as calcium mobilization at 0.3 uM by FLIPR assay
T4 sequence (whole entry): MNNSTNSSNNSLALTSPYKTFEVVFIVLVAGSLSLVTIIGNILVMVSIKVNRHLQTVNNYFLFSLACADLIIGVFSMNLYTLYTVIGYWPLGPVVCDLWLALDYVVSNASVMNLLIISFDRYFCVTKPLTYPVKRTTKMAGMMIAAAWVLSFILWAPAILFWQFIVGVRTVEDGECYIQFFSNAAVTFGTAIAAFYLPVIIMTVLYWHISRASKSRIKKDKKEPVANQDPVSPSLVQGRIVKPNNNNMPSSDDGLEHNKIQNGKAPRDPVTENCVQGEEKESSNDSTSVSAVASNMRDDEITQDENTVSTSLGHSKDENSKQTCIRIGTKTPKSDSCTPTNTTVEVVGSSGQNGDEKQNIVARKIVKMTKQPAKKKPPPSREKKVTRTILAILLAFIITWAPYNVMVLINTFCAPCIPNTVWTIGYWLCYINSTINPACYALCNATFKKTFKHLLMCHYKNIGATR

[5] = molecular target: Muscarinic acetylcholine receptor M3 (Homo sapiens) (UniProt P20309); test: Agonist activity at human muscarinic M3 acetylcholine receptor expressed in CHO cells assessed as calcium mobilization at 0.3 uM by FLIPR assay
Sequence of Muscarinic acetylcholine receptor M3 (Homo sapiens) (P20309 whole entry, looked up): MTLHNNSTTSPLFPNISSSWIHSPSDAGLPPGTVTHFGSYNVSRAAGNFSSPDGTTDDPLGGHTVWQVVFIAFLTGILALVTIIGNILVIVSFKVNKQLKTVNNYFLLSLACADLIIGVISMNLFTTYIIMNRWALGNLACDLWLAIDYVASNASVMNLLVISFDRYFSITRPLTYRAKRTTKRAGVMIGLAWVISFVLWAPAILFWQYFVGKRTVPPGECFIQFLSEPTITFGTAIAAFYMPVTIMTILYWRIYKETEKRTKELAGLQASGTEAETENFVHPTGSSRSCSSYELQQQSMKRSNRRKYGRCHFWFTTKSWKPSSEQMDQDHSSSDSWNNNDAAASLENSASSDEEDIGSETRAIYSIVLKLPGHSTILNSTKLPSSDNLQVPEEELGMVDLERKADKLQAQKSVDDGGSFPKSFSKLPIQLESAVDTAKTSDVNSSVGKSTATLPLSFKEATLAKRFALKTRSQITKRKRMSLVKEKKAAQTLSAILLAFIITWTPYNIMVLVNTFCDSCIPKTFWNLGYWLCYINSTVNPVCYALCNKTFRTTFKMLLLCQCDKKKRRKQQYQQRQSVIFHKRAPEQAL

[6] = molecular target: T2, Muscarinic acetylcholine receptor M4 (Homo sapiens); test: Partial agonist activity at human muscarinic M4 acetylcholine receptor expressed in CHO cells co-expressing Galpha16 assessed as calcium mobilization at 30 uM by FLIPR assay

| Structure (SMILES) | Activity [1] | Activity [2] | Activity [3] | Activity [4] | Activity [5] | Activity [6] |
| --- | --- | --- | --- | --- | --- | --- |
| CCOC(=O)N1CCC(N2CCC(N3Cc4ccccc4NC3=O)CC2)CC1 | 86% | 114% | 31% | 66% | 21% | – |
| CCOC(=O)N1CCC(CN2CCC(N3Cc4ccccc4NC3=O)CC2)CC1 | 82% | 66% | – | 39% | 7% | – |
| CCOC(=O)N1CCC(CN2CC(N3Cc4ccccc4NC3=O)C2)CC1 | 105% | 115% | – | 17% | 1% | – |
| CCOC(=O)N1[C@@H]2CC[C@H]1C[C@H](CN1CC(N3Cc4ccccc4NC3=O)C1)C2 | 87% | 64% | – | 12% | 1% | 65% |
| CCOC(=O)N1CCC(CN2CC[C@H](N3Cc4ccccc4NC3=O)C2)CC1 | 62% | 30% | – | 2% | 3% | – |
| CCOC(=O)N1CCC(CN2CC[C@@H](N3Cc4ccccc4NC3=O)C2)CC1 | 95% | 91% | 3% | 53% | 2% | – |
